Data taken from US9857359B2, “Methods for determining drug efficacy using cereblon-associated proteins” (CELGENE CORPORATION, priority 2012, dated 2018).

Experiments:
Assay type in all cases: cell-based
Ikaros [1] = molecular target: T1, Ikaros (Homo sapiens, UniProt Q13422); assay: Ikaros western blots in MM cells, T cells and B cells; design: endogenous in cells; host or cells: U266, DF15 (and other MM lines), primary CD3+ T cells, primary CD19+ B cells; details: for Reduction of Ikaros levels compared with other treatment compounds for MM: MM cells
T1 sequence (Q13422 whole entry): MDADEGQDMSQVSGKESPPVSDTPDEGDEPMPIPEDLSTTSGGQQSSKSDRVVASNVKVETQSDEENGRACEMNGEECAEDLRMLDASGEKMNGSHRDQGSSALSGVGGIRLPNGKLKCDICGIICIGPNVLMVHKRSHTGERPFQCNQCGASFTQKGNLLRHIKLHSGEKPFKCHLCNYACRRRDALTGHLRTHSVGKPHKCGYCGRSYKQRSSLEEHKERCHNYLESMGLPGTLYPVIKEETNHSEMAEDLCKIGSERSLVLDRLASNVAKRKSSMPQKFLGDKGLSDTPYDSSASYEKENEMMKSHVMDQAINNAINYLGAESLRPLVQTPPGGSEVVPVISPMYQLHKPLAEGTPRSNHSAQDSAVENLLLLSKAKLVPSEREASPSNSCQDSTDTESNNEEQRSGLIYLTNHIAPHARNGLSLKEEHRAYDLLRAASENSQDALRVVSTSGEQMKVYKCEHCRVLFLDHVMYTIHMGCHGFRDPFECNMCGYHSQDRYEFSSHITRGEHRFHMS
Method: U266 cells were obtained from ATCC (American Type Culture Collection, Manassas, Va., USA). DF15 cells were obtained from John Shaughnessy (University of Arkansas, Little Rock, Ark., USA). CD19+ B cells were purchased from HemaCare BioResearch Products (Van Nuys, Calif.). Cells were grown in RPMI-1640 medium (Cellgro, Manassas, Va.) containing 10% (V/V) heat-inactivated fetal bovine serum (Gibco, Grand Island, N.Y., USA) supplemented with 2 mM glutamine. […] Primary T cells were isolated from human leukocytes (Blood Center of New Jersey, East Orange, N.J.) by centrifugation through FICOLL® centrifugation medium following the ROSETETTESEP™ protocol (Stem Cell Technologies, Vancouver, Canada). […] Dexamethasone (Sigma, St. Louis, Mo.), melphalan (Sigma, St. Louis, Mo.) and bortezomib (Selleck Chemicals, Houston, Tex.) treated was for 6 hours. The final DMSO concentration is 0.1%. Cells were pre-treated with 10 μM MG-132 (Calbiochem Biochemicals, Billerica, Mass.) for 30 minutes prior to drug addition. Cells were harvested, washed in PBS and cell lysates separated on SDS-PAGE gels (Bio-Rad, Hercules, Calif.). Membranes were immunoblotted with anti-Aiolos (Santa Cruz Biotechnology, Dallas, Tex.), anti-Ikaros (Millipore, Billerica, Mass.) and anti-Actin (Sigma, St. Louis, Mo.; or LI-COR Biosciences, Lincoln, Nebr.) and secondary antibodies (LI-COR Biosciences, Lincoln, Nebr.). The blots were analyzed on ODESSEY® imager (LI-COR Biosciences, Lincoln, Nebr.).
Cell lysates were separated on a 10% TGX SDS-PAGE gel (Bio-Rad) and blotted for Aiolos (Santa Cruz, sc-10198), Ikaros (Millipore, ABD16) and Actin (Sigma, AC15).

Ikaros [2] = molecular target: T1, Ikaros; assay: Ikaros in siCRBN transfected primary CD3+ T cells; design: endogenous in cells; host or cells: U266, DF15 (and other MM lines), primary CD3+ T cells, primary CD19+ B cells; details: siCRBN vs siControl, 6/24 hours
Method: Primary T cells were isolated from human leukocytes (Blood Center of New Jersey, East Orange, N.J.) by centrifugation through FICOLL® centrifugation medium following the ROSETETTESEP™ protocol (Stem Cell Technologies, Vancouver, Canada). Purified T cells were treated with 1 μg/mL PHA-L (Sigma, St. Louis, Mo.) at 37° C. for 24 hours then transfected with either siCRBN or siAiolos (Invitrogen) (200 nM siRNA/100 μL T buffer/8×10^6 cells/shot×5 shots) using NEON® Transfection System (Invitrogen, Grand Island, N.Y.) with program 2100 voltage+15 width+2 pulse. Low GC content siRNA (Invitrogen, Grand Island, N.Y.) was transfected as negative control. Transfected cells were pooled and cultured in OKT3 (3 μg/mL, eBioscience, San Diego, Calif.) coated 10 cm dish with 20 ml RPMI containing 10% FBS at 37° C. for 24 hours. Cells were collected for measuring CRBN or Aiolos knockdown efficiency by western blot (anti-Aiolos: Santa Cruz, sc-10198, lot.C-0212) and qRT-PCR (Applied Biosystem, gene expression CRBN Hs00372271_ml; IKZF3 ID#:Hs00232635_ml). […] Aiolos and Ikaros protein expression was determined by immunoblot analysis using antibodies against Aiolos (Santa Cruz, Dallas, Tex.) and Ikaros (Millipore, Billerica, Mass.). […] Supernatants were harvested and IL-2 protein detected by ELISA (Thermo Scientific, Lafayette, Colo.). […]

[3] = tested on: Aiolos peptide containing lysine 203; assay: UbiScan mass spectrometry of ubiquitylated proteins in multiple myeloma cells
Source text: Mass spectrometry of ubiquitylated proteins (Ubiscan™): Cell Signaling Technology's UbiScan™ proteomics platform was used to identify and quantify differences in ubiquitination in primary human T cells untreated (Treatment 1) or treated with Treatment 2 or Treatment 3, and in MM cell lines treated with immunomodulatory compounds in the presence or absence of the proteasome inhibitor MG132. The UbiScan™ method combines the isolation of ubiquitinated peptides from protease digested protein extracts using CST's proprietary immunoaffinity purification method with the identification and quantitation of peptides by liquid chromatography, tandem mass spectrometry (LC-MS/MS). The quantification of ubiquitination is based on the abundance of the ubiquitinated peptides recovered by antibody immunoprecipitation. The abundance or intensity information for each ubiquitinated peptide is based on the peak height of that peptide measured in the MS1 channel. The confidence in the calculated fold change is dependent on a number of factors, an important one being the intensity or peak height of the ubiquitinated peptide. Samples were analyzed by LC-MS/MS on an ORBITRAP VELOS™ mass spectrometer. […] Label-free quantitation was performed by comparing peak intensities of the same peptide ion in each sample to generate their corresponding fold-changes. […]

[4] = 10 μM lenalidomide, 1 μM pomalidomide, U266, DF15 MM cells, primary CD3+ T cells, primary CD19+ B cells, cycloheximide treated U266
[5] = six MM cell lines (OPM-2, RPMI-8226, LP-1, U266, H929 and JJN3), various concentrations

SMILES	Ikaros expression (Ikaros [1]; [4])	Reduction of Ikaros levels compared with other treatment compounds for MM (Ikaros [1])	Ikaros expression (Ikaros [1]; [5])	Effect in reducing or inhibiting the expression of Ikaros where CRBN is knocked-down (Ikaros [2])	Ubiquitination of Aiolos peptide containing lysine 203 [3]
Nc1cccc2c1CN(C1CCC(=O)NC1=O)C2=O (stereo not shown) [lenalidomide]	reduced the expression of Aiolos and Ikaros	unique to immunomodulatory compounds provided herein	significantly inhibited Aiolos and Ikaros expression	significantly reduced as compared to the control cells with no CRBN knock-down	enhance the ubiquitination of Aiolos peptide containing lysine 203
Nc1cccc2c1C(=O)N(C1CCC(=O)NC1=O)C2=O (stereo not shown) [pomalidomide, reference compound]	reduced the expression of Aiolos and Ikaros	unique to immunomodulatory compounds provided herein	significantly inhibited Aiolos and Ikaros expression	significantly reduced as compared to the control cells with no CRBN knock-down	enhance the ubiquitination of Aiolos peptide containing lysine 203
